Source: US20110045520A1, “FATTY ACID MARKERS FOR THE DIAGNOSIS, PROGNOSIS AND MANAGEMENT OF CARDIOVASCULAR DISEASE” (priority 2007, published 2011)

Target: T1, human serum albumin (HSA) in pooled normal serum (Homo sapiens, UniProt P02768)
T1 construct: from tissue; host or cells: pooled normal human serum
Assay: Cobalt binding assay, HSA in pooled normal serum incubated with individual unesterified fatty acids
Conditions: fatty acid:HSA molar ratios of about 8; most apparent with HSA in pooled normal serum
Description: The concentrations of twelve unesterified fatty acids were measured in vitro to determine if differences in individual fatty acid levels affect Co(II)—albumin interactions in the cobalt binding assay. The effect of individual fatty acid concentrations on HSA was evaluated in the presence of HSA from two different sources: (1) purified commercial HSA with defined buffer conditions, and (2) USA in pooled normal serum. The cobalt binding assays were performed after incubation of HSA with each unesterified fatty acid for 12 hours at room temperature. The concentrations of the individual FFAs were determined by measuring total FFAs levels before and after the addition of the specific FFAs to pooled normal serum. HSA concentrations were measured by standard colorimetric protein assays. Molar ratios were calculated from the concentration values determined for the individual specific FFAs with respect to the concentrations of HSA measured in each sample.

T1 sequence (P02768 25-609): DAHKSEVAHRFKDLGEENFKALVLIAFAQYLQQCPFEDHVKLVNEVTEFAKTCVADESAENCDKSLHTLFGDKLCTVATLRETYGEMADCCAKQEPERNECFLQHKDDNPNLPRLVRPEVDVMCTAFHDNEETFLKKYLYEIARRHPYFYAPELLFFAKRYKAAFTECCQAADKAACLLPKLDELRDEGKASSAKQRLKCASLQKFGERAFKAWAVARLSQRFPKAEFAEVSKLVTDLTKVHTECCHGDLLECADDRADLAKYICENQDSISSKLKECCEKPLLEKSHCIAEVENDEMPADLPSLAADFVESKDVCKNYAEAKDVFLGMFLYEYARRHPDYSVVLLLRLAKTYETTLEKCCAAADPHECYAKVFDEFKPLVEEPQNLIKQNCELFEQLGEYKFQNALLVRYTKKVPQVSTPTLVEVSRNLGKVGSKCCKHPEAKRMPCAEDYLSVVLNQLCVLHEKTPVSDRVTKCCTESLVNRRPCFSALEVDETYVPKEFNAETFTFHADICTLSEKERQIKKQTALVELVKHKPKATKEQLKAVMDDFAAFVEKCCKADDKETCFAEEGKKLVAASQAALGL

| SMILES | effect on the percent reduction of the Co[II]-HSA binding assay |
| --- | --- |
| CCCCC/C=C\C/C=C\C/C=C\C/C=C\CCCC(=O)O [Arachidonic acid] | significant effect |
| CCCCCCCC/C=C\CCCCCCCC(=O)O [Oleic acid] | significant effect |
